Results taken from ChEMBL document CHEMBL4311935, “Synthesis and antitumor activity of fluorouracil - oleanolic acid/ursolic acid/glycyrrhetinic acid conjugates” (Medchemcomm, 2019).

Columns and labels:
K562 = assay: Cytotoxicity against human K562 cells assessed as cell growth inhibition after 48 hrs by MTT assay; format: functional, cell-based; settings: K562, 48 h
L02 = assay: Cytotoxicity against human LO2 cells assessed as cell growth inhibition after 48 hrs by MTT assay; format: cell-based; settings: L02, 48 h
A549 = assay: Cytotoxicity against human A549 cells assessed as cell growth inhibition after 48 hrs by MTT assay; format: functional, cell-based; settings: A549, 48 h
Bel-7402 = assay: Cytotoxicity against human Bel7402 cells assessed as cell growth inhibition after 48 hrs by MTT assay; format: functional, cell-based; settings: Bel-7402, 48 h
MCF7 = assay: Cytotoxicity against human MCF7 cells assessed as cell growth inhibition after 48 hrs by MTT assay; format: functional, cell-based; settings: MCF7, 48 h
Bel7402/5-FU = assay: Cytotoxicity against human Bel7402/5-FU cells assessed as cell growth inhibition after 48 hrs by MTT assay; format: functional, cell-based
A549/TR = assay: Cytotoxicity against human A549/T cells assessed as cell growth inhibition after 48 hrs by MTT assay; format: functional, cell-based
K562/Adr = assay: Cytotoxicity against human K562/ADR cells assessed as cell growth inhibition after 48 hrs by MTT assay; format: functional, cell-based
NCI/ADR-RES = assay: Cytotoxicity against human MCF7/ADR cells assessed as cell growth inhibition after 48 hrs by MTT assay; format: functional, cell-based

Structure (SMILES): CC1(C)[C@@H](O)CC[C@]2(C)[C@H]3C(=O)C=C4[C@@H]5C[C@@](C)(C(=O)OCCCCCCn6cc(F)c(=O)n(CCCCCCOC(=O)[C@@]7(C)CC[C@]8(C)CC[C@]9(C)C(=CC(=O)[C@@H]%10[C@@]%11(C)CC[C@H](O)C(C)(C)[C@@H]%11CC[C@]%109C)[C@@H]8C7)c6=O)CC[C@]5(C)CC[C@@]4(C)[C@]3(C)CC[C@@H]12
- IC50 (K562): > 200 µM
- IC50 (L02): > 200 µM
- IC50 (A549): > 200 µM
- IC50 (Bel-7402): > 200 µM
- IC50 (MCF7): > 200 µM

Structure (SMILES): C[C@H]1[C@H](C)CC[C@]2(C(=O)OCCCCCCCCn3cc(F)c(=O)n(CCCCCCCCOC(=O)[C@@]45CC[C@]6(C)C(=CC[C@@H]7[C@@]8(C)CC[C@H](O)C(C)(C)[C@@H]8CC[C@]76C)[C@@H]4C[C@@H](C)[C@H](C)C5)c3=O)CC[C@]3(C)C(=CC[C@@H]4[C@@]5(C)CC[C@H](O)C(C)(C)[C@@H]5CC[C@]43C)[C@H]12
- IC50 (K562): > 200 µM
- IC50 (L02): > 200 µM
- IC50 (A549): > 200 µM
- IC50 (Bel-7402): > 200 µM
- IC50 (MCF7): > 200 µM

Structure (SMILES): C[C@H]1[C@H](C)CC[C@]2(C(=O)OCCCCCCCCn3cc(F)c(=O)[nH]c3=O)CC[C@]3(C)C(=CC[C@@H]4[C@@]5(C)CC[C@H](O)C(C)(C)[C@@H]5CC[C@]43C)[C@H]12
- IC50 (K562): > 200 µM
- IC50 (L02): > 200 µM
- IC50 (A549): > 200 µM
- IC50 (Bel-7402): > 200 µM
- IC50 (MCF7): > 200 µM

Structure (SMILES): C[C@H]1[C@H](C)CC[C@]2(C(=O)OCCCCCCn3cc(F)c(=O)n(CCCCCCOC(=O)[C@@]45CC[C@]6(C)C(=CC[C@@H]7[C@@]8(C)CC[C@H](O)C(C)(C)[C@@H]8CC[C@]76C)[C@@H]4C[C@@H](C)[C@H](C)C5)c3=O)CC[C@]3(C)C(=CC[C@@H]4[C@@]5(C)CC[C@H](O)C(C)(C)[C@@H]5CC[C@]43C)[C@H]12
- IC50 (K562): > 200 µM
- IC50 (L02): > 200 µM
- IC50 (A549): > 200 µM
- IC50 (Bel-7402): > 200 µM
- IC50 (MCF7): > 200 µM

Structure (SMILES): CC1(C)[C@@H](O)CC[C@]2(C)[C@H]3C(=O)C=C4[C@@H]5C[C@@](C)(C(=O)OCCCCCCCCn6cc(F)c(=O)n(CCCCCCCCOC(=O)[C@@]7(C)CC[C@]8(C)CC[C@]9(C)C(=CC(=O)[C@@H]%10[C@@]%11(C)CC[C@H](O)C(C)(C)[C@@H]%11CC[C@]%109C)[C@@H]8C7)c6=O)CC[C@]5(C)CC[C@@]4(C)[C@]3(C)CC[C@@H]12
- IC50 (K562): > 200 µM
- IC50 (L02): > 200 µM
- IC50 (A549): > 200 µM
- IC50 (Bel-7402): > 200 µM
- IC50 (MCF7): > 200 µM

Structure (SMILES): C[C@H]1[C@H](C)CC[C@]2(C(=O)OCCCCCCn3cc(F)c(=O)[nH]c3=O)CC[C@]3(C)C(=CC[C@@H]4[C@@]5(C)CC[C@H](O)C(C)(C)[C@@H]5CC[C@]43C)[C@H]12
- IC50 (K562): 14.9 µM
- IC50 (L02): 22.2 µM
- IC50 (A549): 17.4 µM
- IC50 (Bel-7402): 32.5 µM
- IC50 (MCF7): 18.9 µM

Structure (SMILES): CC1(C)CC[C@]2(C(=O)OCCCCCCn3cc(F)c(=O)n(CCCCCCOC(=O)[C@]45CCC(C)(C)C[C@H]4C4=CC[C@@H]6[C@@]7(C)CC[C@H](O)C(C)(C)[C@@H]7CC[C@@]6(C)[C@]4(C)CC5)c3=O)CC[C@]3(C)C(=CC[C@@H]4[C@@]5(C)CC[C@H](O)C(C)(C)[C@@H]5CC[C@]43C)[C@@H]2C1
- IC50 (K562): > 200 µM
- IC50 (L02): > 200 µM
- IC50 (A549): > 200 µM
- IC50 (Bel-7402): > 200 µM
- IC50 (MCF7): > 200 µM

Structure (SMILES): CC1(C)CC[C@]2(C(=O)O)CC[C@]3(C)C(=CC[C@@H]4[C@@]5(C)CC[C@H](O)C(C)(C)[C@@H]5CC[C@]43C)[C@@H]2C1 [OLEANOLIC_ACID]
- IC50 (K562): > 200 µM
- IC50 (L02): > 200 µM
- IC50 (Bel7402/5-FU): > 200 µM
- IC50 (A549/TR): > 200 µM
- IC50 (A549): 41.6 µM
- IC50 (Bel-7402): 59.9 µM
- IC50 (MCF7): > 200 µM
- IC50 (K562/Adr): > 200 µM
- IC50 (NCI/ADR-RES): > 200 µM

Structure (SMILES): CC1(C)CC[C@]2(C(=O)OCCCCCCn3cc(F)c(=O)[nH]c3=O)CC[C@]3(C)C(=CC[C@@H]4[C@@]5(C)CC[C@H](O)C(C)(C)[C@@H]5CC[C@]43C)[C@@H]2C1
- IC50 (K562): 14.9 µM
- IC50 (L02): 46.6 µM
- IC50 (A549): 23.4 µM
- IC50 (Bel-7402): 25.2 µM
- IC50 (MCF7): 24.3 µM

Structure (SMILES): CC1(C)[C@@H](O)CC[C@]2(C)[C@H]3C(=O)C=C4[C@@H]5C[C@@](C)(C(=O)O)CC[C@]5(C)CC[C@@]4(C)[C@]3(C)CC[C@@H]12 [ENOXOLONE]
- IC50 (K562): > 200 µM
- IC50 (L02): > 200 µM
- IC50 (Bel7402/5-FU): 69.8 µM
- IC50 (A549/TR): 99.9 µM
- IC50 (A549): > 200 µM
- IC50 (Bel-7402): > 200 µM
- IC50 (MCF7): > 200 µM
- IC50 (K562/Adr): 86.5 µM
- IC50 (NCI/ADR-RES): 74.5 µM

Structure (SMILES): C[C@H]1[C@H](C)CC[C@]2(C(=O)O)CC[C@]3(C)C(=CC[C@@H]4[C@@]5(C)CC[C@H](O)C(C)(C)[C@@H]5CC[C@]43C)[C@H]12 [URSOLIC ACID]
- IC50 (K562): 41 µM
- IC50 (L02): 58.4 µM
- IC50 (A549): 77.7 µM
- IC50 (Bel-7402): 64.6 µM
- IC50 (MCF7): 70.1 µM
- IC50 (K562/Adr): 38.1 µM

Structure (SMILES): CC1(C)CC[C@]2(C(=O)OCCCCCCCCn3cc(F)c(=O)[nH]c3=O)CC[C@]3(C)C(=CC[C@@H]4[C@@]5(C)CC[C@H](O)C(C)(C)[C@@H]5CC[C@]43C)[C@@H]2C1
- IC50 (K562): 23 µM
- IC50 (L02): > 200 µM
- IC50 (Bel7402/5-FU): 31.4 µM
- IC50 (A549/TR): 43.1 µM
- IC50 (A549): 50.5 µM
- IC50 (Bel-7402): 43.8 µM
- IC50 (MCF7): 53.6 µM
- IC50 (K562/Adr): > 200 µM
- IC50 (NCI/ADR-RES): 166 µM

Structure (SMILES): CC1(C)[C@@H](O)CC[C@]2(C)[C@H]3C(=O)C=C4[C@@H]5C[C@@](C)(C(=O)OCCCCCCn6cc(F)c(=O)[nH]c6=O)CC[C@]5(C)CC[C@@]4(C)[C@]3(C)CC[C@@H]12
- IC50 (K562): 35.1 µM
- IC50 (L02): 73.2 µM
- IC50 (A549): 49.4 µM
- IC50 (Bel-7402): 40.9 µM
- IC50 (MCF7): 50.3 µM

Structure (SMILES): CC1(C)CC[C@]2(C(=O)OCCCCCCCCn3cc(F)c(=O)n(CCCCCCCCOC(=O)[C@]45CCC(C)(C)C[C@H]4C4=CC[C@@H]6[C@@]7(C)CC[C@H](O)C(C)(C)[C@@H]7CC[C@@]6(C)[C@]4(C)CC5)c3=O)CC[C@]3(C)C(=CC[C@@H]4[C@@]5(C)CC[C@H](O)C(C)(C)[C@@H]5CC[C@]43C)[C@@H]2C1
- IC50 (K562): > 200 µM
- IC50 (L02): > 200 µM
- IC50 (A549): > 200 µM
- IC50 (Bel-7402): > 200 µM
- IC50 (MCF7): > 200 µM

Structure (SMILES): O=c1[nH]cc(F)c(=O)[nH]1 [FLUOROURACIL]
- IC50 (K562): 41.7 µM
- IC50 (L02): > 200 µM
- IC50 (Bel7402/5-FU): 38.2 µM
- IC50 (A549/TR): 84.3 µM
- IC50 (A549): 50.4 µM
- IC50 (Bel-7402): 53.3 µM
- IC50 (MCF7): 52.1 µM
- IC50 (K562/Adr): 31.9 µM
- IC50 (NCI/ADR-RES): 54.7 µM
